According to US9181223B2, “2-aminopyrimidin-6-ones and analogs exhibiting anti-cancer and anti-proliferative activities” (Deciphera Pharmaceuticals, LLC, priority 2013, dated 2015):

Key:
[1] = target: T1, unphosphorylated c-KIT kinase (uKIT, Seq. ID no. 2) (Homo sapiens, UniProt P10721); assay: uKit kinase assay (ADP production coupled to pyruvate kinase/lactate dehydrogenase); assay type: biochemical; conditions: enzymatic assay, ATP 2000 μM; read-out: uKIT
T1 construct: uKit with N-terminal GST fusion used for screening
T1 sequence (P10721 with tags, fused parts or gaps): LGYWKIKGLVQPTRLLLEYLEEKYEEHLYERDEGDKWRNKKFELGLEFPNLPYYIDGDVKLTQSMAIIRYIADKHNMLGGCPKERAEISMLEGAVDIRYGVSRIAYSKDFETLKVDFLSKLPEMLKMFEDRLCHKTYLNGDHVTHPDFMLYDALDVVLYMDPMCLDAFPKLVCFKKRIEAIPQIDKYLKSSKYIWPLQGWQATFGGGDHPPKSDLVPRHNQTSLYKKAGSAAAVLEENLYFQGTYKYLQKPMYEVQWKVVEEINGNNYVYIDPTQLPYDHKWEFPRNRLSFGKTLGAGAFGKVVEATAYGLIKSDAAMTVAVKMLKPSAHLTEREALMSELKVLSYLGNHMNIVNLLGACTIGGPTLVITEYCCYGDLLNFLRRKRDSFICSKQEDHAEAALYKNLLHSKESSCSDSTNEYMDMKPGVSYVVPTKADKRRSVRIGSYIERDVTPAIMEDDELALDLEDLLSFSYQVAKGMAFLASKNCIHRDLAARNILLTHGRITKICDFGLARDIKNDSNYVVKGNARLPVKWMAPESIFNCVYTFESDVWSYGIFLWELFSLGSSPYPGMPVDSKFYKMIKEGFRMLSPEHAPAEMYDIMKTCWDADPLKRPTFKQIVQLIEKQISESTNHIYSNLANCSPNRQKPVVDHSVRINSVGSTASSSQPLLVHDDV
Protocol: In this assay, the oxidation of NADH (thus the decrease at A340 nm) was continuously monitored spectrophometrically. […] The inhibition reaction was started by mixing serial diluted test compound with the above reaction mixture. The absorption at 340 nm was monitored continuously for 4 hours at 30° C. on Synergy 2 plate reader (BioTech).

[2] = target: T2, unphosphorylated PDGFRβ kinase (uPDGFRβ, Seq. ID No. 3) (Homo sapiens, UniProt P09619); assay: uPDGFRβ kinase assay (ADP production coupled to pyruvate kinase/lactate dehydrogenase); assay type: biochemical; conditions: enzymatic assay, ATP 500 μM
T2 construct: purchased DeCode
T2 sequence (P09619 557-1106): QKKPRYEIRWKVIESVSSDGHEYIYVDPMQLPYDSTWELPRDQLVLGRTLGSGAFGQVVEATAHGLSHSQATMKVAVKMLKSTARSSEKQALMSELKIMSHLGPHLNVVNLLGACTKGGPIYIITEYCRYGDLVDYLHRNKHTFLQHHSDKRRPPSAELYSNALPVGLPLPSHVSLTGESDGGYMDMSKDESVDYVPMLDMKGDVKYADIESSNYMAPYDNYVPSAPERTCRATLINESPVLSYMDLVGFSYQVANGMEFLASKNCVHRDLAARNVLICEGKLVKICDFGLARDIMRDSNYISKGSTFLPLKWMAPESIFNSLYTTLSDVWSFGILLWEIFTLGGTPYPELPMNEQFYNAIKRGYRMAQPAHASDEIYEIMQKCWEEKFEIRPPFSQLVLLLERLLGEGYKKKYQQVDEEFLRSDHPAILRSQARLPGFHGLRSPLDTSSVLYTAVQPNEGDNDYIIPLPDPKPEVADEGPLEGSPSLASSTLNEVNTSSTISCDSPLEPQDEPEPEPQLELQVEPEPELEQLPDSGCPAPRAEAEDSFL
Protocol: Unphosphorylated […]β) Kinase (Seq. ID No. 3) Assay Activity of unphosphorylated PDGFRβ kinase ([…] No. 3) was determined by following the production of ADP from the kinase reaction with ATP and poly E4Y as substrates through coupling with the pyruvate kinase/lactate dehydrogenase system (e.g., Schindler et al. Science (2000) 289: 1938-1942). In this assay, the oxidation of NADH (thus the decrease at A340 nm) was continuously monitored spectrophometrically. The reaction mixture (100 μL) contained PDGFRβ (DeCode, 15.7 nM), polyE4Y (2.5 mg/mL), MgCl2 (10 mM), pyruvate kinase (4 units), lactate dehydrogenase (0.7 units), phosphoenol pyruvate (1 mM) and NADH (0.28 mM) and ATP (500 μM) in a 90 mM Tris buffer containing 0.2% octyl-glucoside and 1% DMSO, at pH 7.5. The inhibition reaction was started by mixing serial diluted test compound with the above reaction mixture. The absorption at 340 nm was monitored continuously for 4 h at 30° C. on a Polarstar Optima or Synergy 2 plate reader. The reaction rate was calculated using the 1.5 to 2.5 h time frame. Percent inhibition was obtained by comparison of reaction rate with that of a control (i.e. with no test compound). IC50 values were calculated from a series of percent inhibition values determined at a range of inhibitor concentrations using software routines as implemented in the GraphPad Prism software package.

osteoclast precursors = assay: Osteoclast tartrate-resistant acid phosphatase assay; assay type: cell-based; conditions: tartrate-resistant acid phosphatase activity, RANKL and M-CSF, 7-14 days
Protocol: Osteoclast Tartrate-Resistant Acid Phosphatase Assay
A serial dilution of test compound was dispensed into a 384-well black clear bottom plate (Nalge Nunc International, Rochester, N.Y.). Compound was diluted by the addition of DMEM media supplemented with 10% characterized fetal bovine serum (Invitrogen, Carlsbad, Calif.). Diluted compound was transferred to a 384-well black clear bottom plate. Two-thousand five hundred osteoclast precursors (Lonza, Walkersville, Md.) were added per well in growth media containing Receptor Activator of Nuclear Factor Kappa-beta ligand (RANKL) and M-CSF (R&D Systems, Minneapolis, Minn.). Plates were incubated for 7-14 days at 37 degrees Celsius, 5% CO2, and 95% humidity to allow differentiation of osteoclast precursors. At the end of the incubation period, 10 μL of supernatant from each well was transferred to a clear 384-well plate. Tartrate-resistant acid phosphatase activity in the supernatant samples was determined using an acid phosphatase assay kit (Sigma, St. Louis, Mo.). Absorbance was measured at 550 nm using a plate reader. Data was analyzed using Prism software (Graphpad, San Diego, Calif.) to calculate IC50 values.

M-NFS-60 cells = assay: M-NFS-60 cell proliferation assay (resazurin); assay type: cell-based; conditions: 67 h incubation
Protocol: M-NFS-60 cells (catalog #CRL-1838) were obtained from the American Type Culture Collection (ATCC, Manassas, Va.). Briefly, cells were grown in suspension in RPMI 1640 medium supplemented with 10% characterized fetal bovine serum (Invitrogen, Carlsbad, Calif.), 0.05 mM 2-mercaptoethanol, and 20 ng/mL mouse recombinant macrophage colony stimulating factor (M-CSF) at 37° C., 5% CO2, and 95% humidity. Cells were allowed to expand until reaching saturation at which point they were subcultured or harvested for assay use.
M-NFS-60 Cell Proliferation Assay
A serial dilution of test compound was dispensed into a 384-well black clear bottom plate (Corning, Corning, N.Y.). Two thousand five hundred cells were added per well in 50 μL complete growth medium. Plates were incubated for 67 h at 37° C., 5% CO2, and 95% humidity. At the end of the incubation period 10 μL of a 440 µM solution of resazurin (Sigma, St. Louis, Mo.) in PBS was added to each well and incubated for an additional 5 h at 37° C., 5% CO2, and 95% humidity. Plates were read on a Synergy2 reader (Biotek, Winooski, Vt.) using an excitation of 540 nm and an emission of 600 nm. IC50 values were calculated from a series of percent inhibition values determined at a range of inhibitor concentrations using software routines as implemented in the GraphPad Prism software package.

[3] = target: T3, unphosphorylated c-FMS kinase (uFMS, Seq. ID no. 1) (Homo sapiens, UniProt P07333); assay: uFMS kinase assay (ADP production coupled to pyruvate kinase/lactate dehydrogenase); assay type: biochemical; conditions: enzymatic assay, ATP 500 μM
T3 construct: purchased Millipore
T3 sequence (P07333 538-972): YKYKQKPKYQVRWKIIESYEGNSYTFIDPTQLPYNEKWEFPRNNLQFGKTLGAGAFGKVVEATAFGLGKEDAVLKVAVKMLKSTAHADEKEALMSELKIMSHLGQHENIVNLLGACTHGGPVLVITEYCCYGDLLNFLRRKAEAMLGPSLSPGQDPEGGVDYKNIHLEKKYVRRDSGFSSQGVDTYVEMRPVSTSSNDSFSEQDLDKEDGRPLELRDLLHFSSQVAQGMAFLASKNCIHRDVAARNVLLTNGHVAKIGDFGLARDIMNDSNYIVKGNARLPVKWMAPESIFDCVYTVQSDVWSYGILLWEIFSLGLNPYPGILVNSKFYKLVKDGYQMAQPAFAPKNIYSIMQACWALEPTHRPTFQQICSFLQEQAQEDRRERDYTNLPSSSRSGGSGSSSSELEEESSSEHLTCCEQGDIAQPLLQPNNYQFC
Protocol: uFMS Kinase (Seq. ID No. 1) Assay
In this assay, the oxidation of NADH (thus the decrease at A340 nm) was continuously monitored spectrophometrically. The reaction mixture (100 μL) contained FMS (purchased from Millipore) (10 nM), polyE4Y (1 mg/mL), MgCl2 (10 mM), pyruvate kinase (4 units), lactate dehydrogenase (0.7 units), phosphoenol pyruvate (1 mM), NADH (0.28 mM) and ATP (500 μM) in 90 mM Tris buffer containing 0.2% octyl-glucoside and 1% DMSO, pH 7.5. The inhibition reaction was started by mixing serial diluted test compound with the above reaction mixture. The absorption at 340 nm was monitored continuously for 4 hours at 30° C. on Synergy 2 plate reader. The reaction rate was calculated using the 3 to 4 h time frame. Percent inhibition was obtained by comparison of reaction rate with that of a control (i.e. in the absence of test compound). IC50 values were calculated from a series of percent inhibition values determined at a range of inhibitor concentrations using software routines as implemented in the GraphPad Prism software package.

| Structure (SMILES) | IC50 [1] [nM] | IC50 [2] [nM] | IC50 (osteoclast precursors) [nM] | IC50 (M-NFS-60 cells) [nM] | IC50 [3] [nM] |
| --- | --- | --- | --- | --- | --- |
| COCCNc1ncc(-c2ccc(Oc3ccnc(-c4cnn(C)c4)c3)c(C)n2)c(=O)[nH]1 [Example 6, 2-((2-methoxyethyl)amino)-5-(6-methyl-5-((2-(1-methyl-1H-pyrazol-4-yl)pyridin-4-yl)oxy)pyridin-2-yl)pyrimidin-4(3H)-one] | 100 to 1000 | > 1000 | 10 to 100 | 100 to 1000 |  |
| Cc1nc(-c2cnc(NC3CCCC3)[nH]c2=O)ccc1Oc1ccnc(-c2cnn(C)c2)c1 [Example 15, 2-(cyclopentylamino)-5-(6-methyl-5-((2-(1-methyl-1H-pyrazol-4-yl)pyridin-4-yl)oxy)pyridin-2-yl)pyrimidin-4(3H)-one] | 100 to 1000 | 100 to 1000 | < 10 |  |  |
| Cc1nc(-c2cnc(N3CCCC3)n(C)c2=O)ccc1Oc1ccnc(-c2cnn(C)c2)c1 [Example 16, 3-methyl-5-(6-methyl-5-((2-(1-methyl-1H-pyrazol-4-yl)pyridin-4-yl)oxy)pyridin-2-yl)-2-(pyrrolidin-1-yl)pyrimidin-4(3H)-one] | > 1000 | 100 to 1000 | < 10 | < 10 |  |
| Cc1nc(-c2cnc(NC3CC3)n(C)c2=O)ccc1Oc1ccnc(-c2cnn(C)c2)c1 [Example 17, 2-(cyclopropylamino)-3-methyl-5-(6-methyl-5-((2-(1-methyl-1H-pyrazol-4-yl)pyridin-4-yl)oxy)pyridin-2-yl)pyrimidin-4(3H)-one] | > 1000 | > 1000 | < 10 |  |  |
| Cc1cc(-c2cnc(NC(C)C)[nH]c2=O)ncc1Oc1ccnc(-c2cnn(C)c2)c1 [Example 18, 2-(isopropylamino)-5-(4-methyl-5-((2-(1-methyl-1H-pyrazol-4-yl)pyridin-4-yl)oxy)pyridin-2-yl)pyrimidin-4(3H)-one] | 10 to 100 | 10 to 100 | < 10 | < 10 |  |
| CC(=O)Nc1cc(Oc2ccc(-c3cnc(NC(C)C)[nH]c3=O)nc2C)ccn1 [Example 19, N-(4-((6-(2-(isopropylamino)-6-oxo-1,6-dihydropyrimidin-5-yl)-2-methylpyridin-3-yl)oxy)pyridin-2-yl)acetamide] | 100 to 1000 | 100 to 1000 | 10 to 100 |  |  |
| Cc1cc(-c2cnc(N3CCCC3)[nH]c2=O)ncc1Oc1ccnc(-c2cnn(C)c2)c1 [Example 20, 5-(4-methyl-5-((2-(1-methyl-1H-pyrazol-4-yl)pyridin-4-yl)oxy)pyridin-2-yl)-2-(pyrrolidin-1-yl)pyrimidin-4(3H)-one] | 100 to 1000 | 100 to 1000 | < 10 |  |  |
| CCn1cc(-c2cc(Oc3ccc(-c4cnc(NC(C)C)[nH]c4=O)nc3C)ccn2)cn1 [Example 21, 5-(5-((2-(1-ethyl-1H-pyrazol-4-yl)pyridin-4-yl)oxy)-6-methylpyridin-2-yl)-2-(isopropylamino)pyrimidin-4(3H)-one] | > 1000 | > 1000 | 10 to 100 |  |  |
| COC[C@H]1CCCN1c1ncc(-c2ccc(Oc3ccnc(-c4cnn(C)c4)c3)c(C)n2)c(=O)[nH]1 [Example 23, (R)-2-(2-(methoxymethyl)pyrrolidin-1-yl)-5-(6-methyl-5-((2-(1-methyl-1H-pyrazol-4-yl)pyridin-4-yl)oxy)pyridin-2-yl)pyrimidin-4(3H)-one] | > 1000 | > 1000 | 10 to 100 | 10 to 100 | 10 to 100 |
| Cc1nc(-c2cnc(N3CC[C@H](N(C)C)C3)[nH]c2=O)ccc1Oc1ccnc(-c2cnn(C)c2)c1 [Example 24, (S)-2-(3-(dimethylamino)pyrrolidin-1-yl)-5-(6-methyl-5-((2-(1-methyl-1H-pyrazol-4-yl)pyridin-4-yl)oxy)pyridin-2-yl)pyrimidin-4(3H)-one] | > 1000 | > 1000 | 100 to 1000 | 100 to 1000 | 100 to 1000 |
| COCCNc1ncc(-c2ccc(Oc3ccnc(-c4cnn(C)c4)c3)c(C)n2)c(=O)n1C [Example 26, 2-((2-methoxyethyl)amino)-3-methyl-5-(6-methyl-5-((2-(1-methyl-1H-pyrazol-4-yl)pyridin-4-yl)oxy)pyridin-2-yl)pyrimidin-4(3H)-one] | > 1000 | > 1000 | 10 to 100 | 10 to 100 |  |
| Cc1nc(-c2cnc(NC3CCOCC3)[nH]c2=O)ccc1Oc1ccnc(-c2cnn(C)c2)c1 [Example 27, 5-(6-methyl-5-((2-(1-methyl-1H-pyrazol-4-yl)pyridin-4-yl)oxy)pyridin-2-yl)-2-((tetrahydro-2H-pyran-4-yl)amino)pyrimidin-4(3H)-one] | > 1000 | > 1000 | 10 to 100 |  |  |
